Experimental data taken from patent US10101655B2, “Compound, polymer, photosensitive resin composition, and color filter” (SAMSUNG SDI CO., LTD., priority 2016, dated 2018).

Assay: Evaluation 1: Solubility Measurement (dissolution state in dilution solvents)
Type: physicochemical
Details: stirred at 25° C. and 100 rpm for one hour; for Amount of dissolved compound (wt %), CH2Cl2: solvent CH2Cl2 added to 0.5 g of compound; for Amount of dissolved compound (wt %), MeOH: solvent MeOH added to 0.5 g of compound; for Amount of dissolved compound (wt %), Cyclohexanone: solvent cyclohexanone added to 0.5 g of compound
Method: Evaluation 1: Solubility Measurement
Dilution solvents (MeOH, CH2Cl2, cyclohexanone) were respectively added to 0.5 g of the compounds represented by Chemical Formula 6-1 to Chemical Formula 17-2 and the compound represented by Chemical Formula X-1, and each solution was stirred with Mixrotar VMR-5 (Iuchi Seieido Co., Ltd.) at 25° C. and 100 rpm for one hour.

| SMILES | Amount of dissolved compound (wt %), CH2Cl2 | Amount of dissolved compound (wt %), MeOH | Amount of dissolved compound (wt %), Cyclohexanone |
| --- | --- | --- | --- |
| C=C(C)C(=O)OCCNC(=O)OCCN(CC)c1ccc2c(-c3ccccc3S(=O)(=O)[O-])c3ccc(=[N+](CC)CC)cc-3oc2c1 [Chemical Formula 6-1] | >10% wt % | >10% wt % | >3% wt % |
| C=C(C)C(=O)OCCNC(=O)OCCN(CC)c1ccc2c(-c3ccccc3S(=O)(=O)[N-]S(=O)(=O)C(F)(F)F)c3ccc(=[N+](CC)CC)cc-3oc2c1 [Chemical Formula 6-2] | >10% wt % | >10% wt % | >3% wt % |
| C=C(C)C(=O)OCCNC(=O)OCCN(CCCC)c1ccc2c(-c3ccccc3S(=O)(=O)[O-])c3cc/c(=[N+](\CC)CCCC)cc-3oc2c1 [Chemical Formula 7-1] | >10% wt % | >10% wt % | >3% wt % |
| C=C(C)C(=O)OCCNC(=O)OCCN(CCCC)c1ccc2c(-c3ccccc3S(=O)(=O)[N-]S(=O)(=O)C(F)(F)F)c3cc/c(=[N+](\CC)CCCC)cc-3oc2c1 [Chemical Formula 7-2] | >10% wt % | >10% wt % | >3% wt % |
| C=C(C)C(=O)OCCNC(=O)OCCN(CC)c1ccc2c(-c3ccccc3S(=O)(=O)[O-])c3cc/c(=[N+](\CC)c4ccccc4)cc-3oc2c1 [Chemical Formula 8-1] | >10% wt % | >10% wt % | >3% wt % |
| C=C(C)C(=O)OCCNC(=O)OCCN(CC)c1ccc2c(-c3ccccc3S(=O)(=O)[N-]S(=O)(=O)C(F)(F)F)c3cc/c(=[N+](\CC)c4ccccc4)cc-3oc2c1 [Chemical Formula 8-2] | >10% wt % | >10% wt % | >3% wt % |
| CCN(CCOC(=O)Nc1ccccc1)c1ccc2c(-c3ccccc3S(=O)(=O)[O-])c3ccc(=[N+](CC)CC)cc-3oc2c1 [Chemical Formula 9-1] | >10% wt % | >10% wt % | >1% wt % |
| CCN(CCOC(=O)Nc1ccccc1)c1ccc2c(-c3ccccc3S(=O)(=O)[N-]S(=O)(=O)C(F)(F)F)c3ccc(=[N+](CC)CC)cc-3oc2c1 [Chemical Formula 9-2] | >10% wt % | >10% wt % | >1% wt % |
| C=C(C)C(=O)OCCNC(=O)OCCN(CC)c1ccc2c(-c3ccccc3S(=O)(=O)[O-])c3cc/c(=[N+](/CC)CCOC(=O)NCCOC(=O)C(=C)C)cc-3oc2c1 [Chemical Formula 10-1] | >10% wt % | >10% wt % | >5% wt % |
| C=C(C)C(=O)OCCNC(=O)OCCN(CC)c1ccc2c(-c3ccccc3S(=O)(=O)[N-]S(=O)(=O)C(F)(F)F)c3cc/c(=[N+](/CC)CCOC(=O)NCCOC(=O)C(=C)C)cc-3oc2c1 [Chemical Formula 10-2] | >10% wt % | >10% wt % | >5% wt % |
| C=C(C)C(=O)OCCNC(=O)OCCN(CCCC)c1ccc2c(-c3ccccc3S(=O)(=O)[O-])c3cc/c(=[N+](/CCCC)CCOC(=O)NCCOC(=O)C(=C)C)cc-3oc2c1 [Chemical Formula 11-1] | >10% wt % | >10% wt % | >5% wt % |
| C=C(C)C(=O)OCCNC(=O)OCCN(CCCC)c1ccc2c(-c3ccccc3S(=O)(=O)[N-]S(=O)(=O)C(F)(F)F)c3cc/c(=[N+](/CCCC)CCOC(=O)NCCOC(=O)C(=C)C)cc-3oc2c1 [Chemical Formula 11-2] | >10% wt % | >10% wt % | >5% wt % |
| C=C(C)C(=O)OCCNC(=O)OCCN(CC)c1ccc2c(-c3ccccc3S(=O)(=O)[O-])c3cc/c(=[N+](\CCOC(=O)NCCOC(=O)C(=C)C)c4ccccc4)cc-3oc2c1 [Chemical Formula 12-1] | >10% wt % | >10% wt % | >5% wt % |
| C=C(C)C(=O)OCCNC(=O)OCCN(CC)c1ccc2c(-c3ccccc3S(=O)(=O)[N-]S(=O)(=O)C(F)(F)F)c3cc/c(=[N+](\CCOC(=O)NCCOC(=O)C(=C)C)c4ccccc4)cc-3oc2c1 [Chemical Formula 12-2] | >10% wt % | >10% wt % | >5% wt % |
| CCN(CCOC(=O)Nc1ccccc1)c1ccc2c(-c3ccccc3S(=O)(=O)[O-])c3cc/c(=[N+](/CC)CCOC(=O)Nc4ccccc4)cc-3oc2c1 [Chemical Formula 13-1] | >10% wt % | >10% wt % | >3% wt % |
| CCN(CCOC(=O)Nc1ccccc1)c1ccc2c(-c3ccccc3S(=O)(=O)[N-]S(=O)(=O)C(F)(F)F)c3cc/c(=[N+](/CC)CCOC(=O)Nc4ccccc4)cc-3oc2c1 [Chemical Formula 13-2] | >10% wt % | >10% wt % | >3% wt % |
| C=CC(=O)OCCNC(=O)OCCN(CC)c1ccc2c(-c3ccccc3S(=O)(=O)[O-])c3cc/c(=[N+](/CC)CCOC(=O)NCCOC(=O)C=C)cc-3oc2c1 [Chemical Formula 14-1] | >10% wt % | >10% wt % | >5% wt % |
| C=CC(=O)OCCNC(=O)OCCN(CC)c1ccc2c(-c3ccccc3S(=O)(=O)[N-]S(=O)(=O)C(F)(F)F)c3cc/c(=[N+](/CC)CCOC(=O)NCCOC(=O)C=C)cc-3oc2c1 [Chemical Formula 14-2] | >10% wt % | >10% wt % | >5% wt % |
| C=C(C)c1cccc(C(C)(C)NC(=O)OCCN(CC)c2ccc3c(-c4ccccc4S(=O)(=O)[O-])c4cc/c(=[N+](/CC)CCOC(=O)NC(C)(C)c5cccc(C(=C)C)c5)cc-4oc3c2)c1 [Chemical Formula 15-1] | >10% wt % | >10% wt % | >5% wt % |
| C=C(C)c1cccc(C(C)(C)NC(=O)OCCN(CC)c2ccc3c(-c4ccccc4S(=O)(=O)[N-]S(=O)(=O)C(F)(F)F)c4cc/c(=[N+](/CC)CCOC(=O)NC(C)(C)c5cccc(C(=C)C)c5)cc-4oc3c2)c1 [Chemical Formula 15-2] | >10% wt % | >10% wt % | >5% wt % |
| CCN(CCOC(=O)NC1CCCCC1)c1ccc2c(-c3ccccc3S(=O)(=O)[O-])c3ccc(=[N+](CC)CC)cc-3oc2c1 [Chemical Formula 16-1] | >10% wt % | >10% wt % | >1% wt % |
| CCN(CCOC(=O)NC1CCCCC1)c1ccc2c(-c3ccccc3S(=O)(=O)[N-]S(=O)(=O)C(F)(F)F)c3ccc(=[N+](CC)CC)cc-3oc2c1 [Chemical Formula 16-2] | >10% wt % | >10% wt % | >1% wt % |
| CCN(CCOC(=O)NC1CCCCC1)c1ccc2c(-c3ccccc3S(=O)(=O)[O-])c3cc/c(=[N+](/CC)CCOC(=O)NC4CCCCC4)cc-3oc2c1 [Chemical Formula 17-1] | >10% wt % | >10% wt % | >3% wt % |
| CCN(CCOC(=O)NC1CCCCC1)c1ccc2c(-c3ccccc3S(=O)(=O)[N-]S(=O)(=O)C(F)(F)F)c3cc/c(=[N+](/CC)CCOC(=O)NC4CCCCC4)cc-3oc2c1 [Chemical Formula 17-2] | >10% wt % | >10% wt % | >3% wt % |
| CCN(CC)c1ccc2c(-c3ccccc3S(=O)(=O)O)c3ccc(=[N+](CC)CC)cc-3oc2c1 [Chemical Formula X-1, reference compound] | <1% wt % | >10% wt % | <1% wt % |
